For 32 molecules, IC50 results are on record in patent US11802111B2, “Cyclobutyl amide monoacylglycerol lipase modulators” (Janssen Pharmaceutica NV, priority 2020, dated 2023).

For orientation: IC50 means the concentration at which inhibition is half-maximal. Lower therefore signals greater potency.

Chain of human MGL from HeLa cells (Q99685 whole entry): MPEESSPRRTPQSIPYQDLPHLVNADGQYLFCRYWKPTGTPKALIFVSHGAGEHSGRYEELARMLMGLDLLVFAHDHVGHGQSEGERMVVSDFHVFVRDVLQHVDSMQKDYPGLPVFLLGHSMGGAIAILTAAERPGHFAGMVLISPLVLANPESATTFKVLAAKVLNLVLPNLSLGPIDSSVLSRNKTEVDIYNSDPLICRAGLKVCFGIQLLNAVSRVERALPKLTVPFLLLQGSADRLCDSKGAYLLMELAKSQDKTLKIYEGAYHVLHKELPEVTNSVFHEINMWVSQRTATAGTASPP

The target of this assay is human MGL from HeLa cells (Homo sapiens (Human), UniProt Q99685). The assay can be described thus: MGL in vitro activity assay ([glycerol-1,3-3H]-oleoyl glycerol hydrolysis, activated carbon filtration). It is filed as biochemical. The note with it: 300 nM [Glycerol-1,3-3H]-oleoyl glycerol, one hour. In a few lines:
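Endogenous human MGL in HeLa cells/homogenates incubated 1 h with test compounds and 300 nM [glycerol-1,3-3H]-oleoyl glycerol. Released 3H-glycerol passing an activated carbon filter counted as activity; screening at 10 μM compound, top IC50 concentration set empirically.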
In the case of `C[C@]1(O)C[C@@H](C(=O)N2CC3(CCC(F)(c4ccccc4)CC3)C2)C1` [Example 340, (7-Fluoro-7-phenyl-2-azaspiro[3.5]nonan-2-yl)((1s,3s)-3-hydroxy-3-methylcyclobutyl)methanone], half-maximal inhibition (IC50) was put at 288 nM.

`Cn1ccc2ccc(C3(F)CCC4(CC3)CN(C(=O)[C@H]3C[C@@](C)(O)C3)C4)nc21` [Example 341, (7-Fluoro-7-(1-methyl-1H-pyrrolo[2,3-b]pyridin-6-yl)-2-azaspiro[3.5]nonan-2-yl)((1s,3s)-3-hydroxy-3-methylcyclobutyl)methanone] had a 50% inhibitory concentration (IC50) of 101 nM.

Molecule `COC1(c2ccccc2)CCC2(CC1)CN(C(=O)[C@H]1C[C@@](C)(O)C1)C2` [Example 342, ((1s,3s)-3-Hydroxy-3-methylcyclobutyl)(7-methoxy-7-phenyl-2-azaspiro[3.5]nonan-2-yl)methanone] returned a concentration for half-maximal inhibition (IC50) of 40 nM.

Regarding `COC1(c2ccccc2C)CCC2(CC1)CN(C(=O)[C@H]1C[C@@](C)(O)C1)C2` [Example 343, ((1s,3s)-3-Hydroxy-3-methylcyclobutyl)(7-methoxy-7-(o-tolyl)-2-azaspiro[3.5]nonan-2-yl)methanone], half-maximal inhibition (IC50) was put at 16 nM.

Turning to `COC1(c2cc(C)cc(C)c2)CCC2(CC1)CN(C(=O)[C@H]1C[C@@](C)(O)C1)C2` [Example 344, (7-(3,5-Dimethylphenyl)-7-methoxy-2-azaspiro[3.5]nonan-2-yl)((1s,3s)-3-hydroxy-3-methylcyclobutyl)methanone], the IC50 came to 0.84 nM.

The molecule `Cn1cnc(-c2cccc(C3CCC4(CC3)CN(C(=O)[C@H]3C[C@@](C)(O)C3)C4)c2)c1` [Example 345, ((1s,3s)-3-Hydroxy-3-methylcyclobutyl)(7-(3-(1-methyl-1H-imidazol-4-yl)phenyl)-2-azaspiro[3.5]nonan-2-yl)methanone] gave a 50% inhibitory concentration (IC50) of 187 nM.

The molecule `C[C@]1(O)C[C@@H](C(=O)N2CC3(CCC(c4ccc(-n5cccn5)cc4)CC3)C2)C1` [Example 346, (7-(4-(1H-Pyrazol-1-yl)phenyl)-2-azaspiro[3.5]nonan-2-yl)((1s,3s)-3-hydroxy-3-methylcyclobutyl)methanone] returned an IC50 of 295 nM.

For the molecule `C[C@]1(O)C[C@@H](C(=O)N2CC3(CCC(c4cccc(-n5cccn5)c4)CC3)C2)C1` [Example 347, (7-(3-(1H-Pyrazol-1-yl)phenyl)-2-azaspiro[3.5]nonan-2-yl)((1s,3s)-3-hydroxy-3-methylcyclobutyl)methanone], the 50% inhibitory concentration (IC50) was 56 nM.

On to `Cc1cc(F)cc(C2CCC3(CC2)CN(C(=O)[C@H]2C[C@@](C)(O)C2)C3)c1` [Example 352, (7-(3-Fluoro-5-methylphenyl)-2-azaspiro[3.5]nonan-2-yl)((1s,3s)-3-hydroxy-3-methylcyclobutyl)methanone], for which half-maximal inhibition (IC50) was put at 22 nM.

In the case of `Cc1cc(C2CCC3(CC2)CN(C(=O)[C@H]2C[C@@](C)(O)C2)C3)ccc1F` [Example 353, (7-(4-Fluoro-3-methylphenyl)-2-azaspiro[3.5]nonan-2-yl)((1s,3s)-3-hydroxy-3-methylcyclobutyl)methanone], the IC50 came to 18 nM.

Take `Cc1ccc(F)c(C2CCC3(CC2)CN(C(=O)[C@H]2C[C@@](C)(O)C2)C3)c1` [Example 354, (7-(2-Fluoro-5-methylphenyl)-2-azaspiro[3.5]nonan-2-yl)((1s,3s)-3-hydroxy-3-methylcyclobutyl)methanone]: the IC50 was 20 nM.

As for `Cc1cccc(C2CCC3(CC2)CN(C(=O)[C@H]2C[C@@](C)(O)C2)C3)c1F` [Example 355, (7-(2-Fluoro-3-methylphenyl)-2-azaspiro[3.5]nonan-2-yl)((1s,3s)-3-hydroxy-3-methylcyclobutyl)methanone], 39 nM corresponded to half-maximal inhibition (IC50).

In turn, `Cc1cccc(F)c1C1CCC2(CC1)CN(C(=O)[C@H]1C[C@@](C)(O)C1)C2` [Example 356, (7-(2-Fluoro-6-methylphenyl)-2-azaspiro[3.5]nonan-2-yl)((1s,3s)-3-hydroxy-3-methylcyclobutyl)methanone] registered a concentration for half-maximal inhibition (IC50) of 15 nM.

Take `Cc1cc(F)ccc1C1CCC2(CC1)CN(C(=O)[C@H]1C[C@@](C)(O)C1)C2` [Example 357, (7-(4-Fluoro-2-methylphenyl)-2-azaspiro[3.5]nonan-2-yl)((1s,3s)-3-hydroxy-3-methylcyclobutyl)methanone]: the IC50 was 29 nM.

`Cc1ccc(F)cc1C1CCC2(CC1)CN(C(=O)[C@H]1C[C@@](C)(O)C1)C2` [Example 358, (7-(5-Fluoro-2-methylphenyl)-2-azaspiro[3.5]nonan-2-yl)((1s,3s)-3-hydroxy-3-methylcyclobutyl)methanone] gave an IC50 of 29 nM.

Turning to `Cc1c(F)cccc1C1CCC2(CC1)CN(C(=O)[C@H]1C[C@@](C)(O)C1)C2` [Example 359, (7-(3-Fluoro-2-methylphenyl)-2-azaspiro[3.5]nonan-2-yl)((1s,3s)-3-hydroxy-3-methylcyclobutyl)methanone], it took 18 nM to reach half-maximal inhibition (IC50).

Molecule `CCOc1cc(C2CCC3(CC2)CN(C(=O)[C@H]2C[C@@](C)(O)C2)C3)ccc1C` [Example 360, (7-(3-Ethoxy-4-methylphenyl)-2-azaspiro[3.5]nonan-2-yl)((1s,3s)-3-hydroxy-3-methylcyclobutyl)methanone] came in with a half-maximal inhibitory concentration (IC50) of 36 nM.

For the molecule `CCOc1cccc(C2CCC3(CC2)CN(C(=O)[C@H]2C[C@@](C)(O)C2)C3)c1C` [Example 361, (7-(3-Ethoxy-2-methylphenyl)-2-azaspiro[3.5]nonan-2-yl)((1s,3s)-3-hydroxy-3-methylcyclobutyl)methanone], the concentration for half-maximal inhibition (IC50) turned out to be 1.8 nM.

As to `Cc1c(OC(C)C)cccc1C1CCC2(CC1)CN(C(=O)[C@H]1C[C@@](C)(O)C1)C2` [Example 362, ((1s,3s)-3-Hydroxy-3-methylcyclobutyl)(7-(3-isopropoxy-2-methylphenyl)-2-azaspiro[3.5]nonan-2-yl)methanone], half-maximal inhibition (IC50) required 1.5 nM.

The molecule `COc1ccc(C)c(C2CCC3(CC2)CN(C(=O)[C@H]2C[C@@](C)(O)C2)C3)c1` [Example 363, ((1s,3s)-3-Hydroxy-3-methylcyclobutyl)(7-(5-methoxy-2-methylphenyl)-2-azaspiro[3.5]nonan-2-yl)methanone] registered an IC50 of 164 nM.

In turn, `Cc1c(OC2CC2)cccc1C1CCC2(CC1)CN(C(=O)[C@H]1C[C@@](C)(O)C1)C2` [Example 364, (7-(3-Cyclopropoxy-2-methylphenyl)-2-azaspiro[3.5]nonan-2-yl)((1s,3s)-3-hydroxy-3-methylcyclobutyl)methanone] displayed a half-inhibitory concentration (IC50) of 2.9 nM.

Molecule `CCOc1cc(F)cc(C2CCC3(CC2)CN(C(=O)[C@H]2C[C@@](C)(O)C2)C3)c1` [Example 365, (7-(3-Ethoxy-5-fluorophenyl)-2-azaspiro[3.5]nonan-2-yl)((1s,3s)-3-hydroxy-3-methylcyclobutyl)methanone] displayed a half-maximal inhibitory concentration (IC50) of 22 nM.

As to `COc1cccc(C2CCC3(CC2)CN(C(=O)[C@H]2C[C@@](C)(O)C2)C3)c1F` [Example 366, (7-(2-Fluoro-3-methoxyphenyl)-2-azaspiro[3.5]nonan-2-yl)((1s,3s)-3-hydroxy-3-methylcyclobutyl)methanone], it took 50 nM to reach half-maximal inhibition (IC50).

As for `COc1cccc(C2CCC3(CC2)CN(C(=O)[C@H]2C[C@@](C)(O)C2)C3)c1Cl` [Example 367, (7-(2-Chloro-3-methoxyphenyl)-2-azaspiro[3.5]nonan-2-yl)((1s,3s)-3-hydroxy-3-methylcyclobutyl)methanone], 40 nM corresponded to half-maximal inhibition (IC50).

Regarding `COc1cc(F)c(F)c(C2CCC3(CC2)CN(C(=O)[C@H]2C[C@@](C)(O)C2)C3)c1` [Example 368, (7-(2,3-Difluoro-5-methoxyphenyl)-2-azaspiro[3.5]nonan-2-yl)((1s,3s)-3-hydroxy-3-methylcyclobutyl)methanone], it took 59 nM to reach half-maximal inhibition (IC50).

In turn, `COc1cc(F)cc(C2CCC3(CC2)CN(C(=O)[C@H]2C[C@@](C)(O)C2)C3)c1F` [Example 369, (7-(2,5-Difluoro-3-methoxyphenyl)-2-azaspiro[3.5]nonan-2-yl)((1s,3s)-3-hydroxy-3-methylcyclobutyl)methanone] displayed a half-maximal inhibitory concentration (IC50) of 35 nM.

On to `COc1cc(C2CCC3(CC2)CN(C(=O)[C@H]2C[C@@](C)(O)C2)C3)cc(F)c1C` [Example 370, (7-(3-Fluoro-5-methoxy-4-methylphenyl)-2-azaspiro[3.5]nonan-2-yl)((1s,3s)-3-hydroxy-3-methylcyclobutyl)methanone], for which it took 11 nM to reach half-maximal inhibition (IC50).

Take `C[C@]1(O)C[C@@H](C(=O)N2CC3(CCC(c4cccc(C5(C(F)(F)F)CC5)n4)CC3)C2)C1` [Example 371, ((1s,3s)-3-Hydroxy-3-methylcyclobutyl)(7-(6-(1-(trifluoromethyl)cyclopropyl)pyridin-2-yl)-2-azaspiro[3.5]nonan-2-yl)methanone]: the 50% inhibitory concentration (IC50) turned out to be 6.4 nM.

Molecule `CC1(c2cccc(C3CCC4(CC3)CN(C(=O)[C@H]3C[C@@](C)(O)C3)C4)n2)CC1` [Example 372, ((1s,3s)-3-Hydroxy-3-methylcyclobutyl)(7-(6-(1-methylcyclopropyl)pyridin-2-yl)-2-azaspiro[3.5]nonan-2-yl)methanone] registered an IC50 of 5.1 nM.

Consider `Cc1ccc(C2CCC3(CC2)CN(C(=O)[C@H]2C[C@@](C)(O)C2)C3)nc1C(C)C` [Example 373, ((1s,3s)-3-Hydroxy-3-methylcyclobutyl)(7-(6-isopropyl-5-methylpyridin-2-yl)-2-azaspiro[3.5]nonan-2-yl)methanone], for which the IC50 was 2.4 nM.

The molecule `Cc1cc(OC(C)C)nc(C2CCC3(CC2)CN(C(=O)[C@H]2C[C@@](C)(O)C2)C3)c1` [Example 374, ((1s,3s)-3-Hydroxy-3-methylcyclobutyl)(7-(6-isopropoxy-4-methylpyridin-2-yl)-2-azaspiro[3.5]nonan-2-yl)methanone] came in with an IC50 of 9.3 nM.

As for `COc1cc(C)nc(C2CCC3(CC2)CN(C(=O)[C@H]2C[C@@](C)(O)C2)C3)c1` [Example 375, ((1s,3s)-3-Hydroxy-3-methylcyclobutyl)(7-(4-methoxy-6-methylpyridin-2-yl)-2-azaspiro[3.5]nonan-2-yl)methanone], the 50% inhibitory concentration (IC50) came out at 231 nM.
